Values of other authors as cited in patent US20090130200A1, “GRANULES FOR CONTROLLED RELEASE OF TAMSULOSIN” (SIEGFRIED GENERICS INTERNATIONAL AG, priority 2004, published 2009).
Counter-ions that a name gives are not always drawn.

CCOc1ccccc1OCCN[C@H](C)Cc1ccc(OC)c(S(N)(=O)=O)c1 [Tamsulosin hydrochloride]
solubility in water: only slightly soluble in water
